EC50 data for 20 compounds are collected here from US11787796B2, “Plasma Kallikrein inhibitors and uses thereof” (Takeda Pharmaceutical Company Limited, priority 2019, dated 2023).

human activated kallikrein enzyme, sequence (P03952 391-638): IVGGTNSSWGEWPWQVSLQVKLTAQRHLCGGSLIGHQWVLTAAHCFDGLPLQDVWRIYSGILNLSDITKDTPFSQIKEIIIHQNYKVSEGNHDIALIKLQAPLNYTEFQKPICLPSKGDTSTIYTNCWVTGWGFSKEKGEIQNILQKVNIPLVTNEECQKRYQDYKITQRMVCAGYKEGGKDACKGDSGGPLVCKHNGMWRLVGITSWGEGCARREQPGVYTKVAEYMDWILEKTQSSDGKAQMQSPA
human activated kallikrein enzyme, sequence (P03952 20-390 partner): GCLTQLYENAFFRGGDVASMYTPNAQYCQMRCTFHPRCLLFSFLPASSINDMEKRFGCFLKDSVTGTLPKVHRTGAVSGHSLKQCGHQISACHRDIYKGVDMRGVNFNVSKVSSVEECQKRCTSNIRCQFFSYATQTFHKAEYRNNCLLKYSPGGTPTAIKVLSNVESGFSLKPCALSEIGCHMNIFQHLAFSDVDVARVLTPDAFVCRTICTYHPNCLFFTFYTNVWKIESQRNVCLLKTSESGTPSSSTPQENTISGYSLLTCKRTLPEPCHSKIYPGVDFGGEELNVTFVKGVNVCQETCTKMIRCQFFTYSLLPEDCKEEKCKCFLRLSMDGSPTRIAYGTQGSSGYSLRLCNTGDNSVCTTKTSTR

This assay deals with human activated kallikrein enzyme (Homo sapiens (Human), UniProt P03952). Put plainly: Plasma kallikrein inhibition assay with fluorogenic peptide substrate, 500 pM activated kallikrein format. The format is biochemical. Particulars: 500 pM activated kallikrein; 300 uM Pro-Phe-Arg-7-amido-4-methylcoumarin substrate; 30 min preincubation, 10 min reaction at RT; read-out: Primary Dose Response Assay: Average EC50. On the procedure:
Example compounds were evaluated for inhibition of the human activated kallikrein enzyme in two formats of an assay employing a fluorogenic peptide substrate. In one assay format, the concentrations of reagents were as follows: 20 mM Tris pH 7.5, 1 mM EDTA, 150 mM sodium chloride, 0.1% PEG-400, 0.1% Triton X-100, […], 300 uM Pro-Phe-Arg-7-amido-4-methylcoumarin substrate. Prior to reaction initiation with substrate, enzyme and inhibitors were preincubated for 30 min at RT. After initiation with substrate, reactions were incubated for 10 min at RT and fluorescence emission at 460 nm from 380 nm excitation measured with a microplate reader. In another assay format, the concentrations of reagents were as follows: 20 mM Tris pH 7.5, 1 mM EDTA, 150 mM sodium chloride, 0.1% PEG-400, 0.1% Triton X-100, 5 pM activated kallikrein enzyme, 300 uM Pro-Phe-Arg-7-amido-4-methylcoumarin substrate. Prior to reaction initiation with substrate, enzyme and inhibitors were preincubated for 30 min at RT. After initiation with substrate, reactions were incubated for 18 h at RT and fluorescence emission at 460 nm from 380 nm excitation measured with a microplate reader.
Table II provides the results of the assay in the format with 500 pM activated kallikrein assay.
Table III provides comparative plasma kallikrein inhibition potency in the assay format with 500 pM activated kallikrein assay (described in detail in the preceding example).
By EC50 is commonly meant the concentration at which the effect is half-maximal. With `COc1ccc(-n2cc(Cl)nn2)c(CNC(=O)c2cn(Cc3cn4cc(C5CC5)ccc4n3)nn2)c1F` [Example I-1, N-(6-(4-chloro-1H-1,2,3-triazol-1-yl)-2-fluoro-3-methoxybenzyl)-1-((6-cyclopropylimidazo[1,2-a]pyridin-2-yl)methyl)-1H-1,2,3-triazole-4-carboxamide], the EC50 was not above 1 nM.

With `COc1ccc(C#N)c(CNC(=O)c2cnn(Cc3cn4cc(C5CC5)ccc4n3)c2)c1F` [Example I-119, N-(6-cyano-2-fluoro-3-methoxybenzyl)-1-((6-cyclopropylimidazo[1,2-a]pyridin-2-yl)methyl)-1H-pyrazole-4-carboxamide], the EC50 was 1 to 10 nM.

Regarding `Cc1cc2c(N)noc2c(C)c1CNC(=O)c1cnn(Cc2cn3cc(C4CC4)ccc3n2)c1` [Example I-134, N-((3-amino-5,7-dimethylbenzo[d]isoxazol-6-yl)methyl)-1-((6-cyclopropylimidazo[1,2-a]pyridin-2-yl)methyl)-1H-pyrazole-4-carboxamide], the EC50 was 2000 to 7100 nM.

With `N#Cc1cc(C2CC2)cn2cc(Cn3cc(C(=O)NC4CCc5c4ccnc5N)nn3)nc12` (centres unmarked) [Example I-14, N-(1-amino-6,7-dihydro-5H-cyclopenta[c]pyridin-5-yl)-1-((8-cyano-6-cyclopropylimidazo[1,2-a]pyridin-2-yl)methyl)-1H-1,2,3-triazole-4-carboxamide], the EC50 was in the range of 1 to 10 nM.

In the case of `O=C(NCc1cc2ccc(Cl)cc2s1)c1cn(Cc2cn3cc(C4CC4)ccc3n2)nn1` [Example I-77, N-((6-chlorobenzo[b]thiophen-2-yl)methyl)-1-((6-cyclopropylimidazo[1,2-a]pyridin-2-yl)methyl)-1H-1,2,3-triazole-4-carboxamide], the EC50 was more than 7100 nM.

Take `O=C(NCc1ccc2sccc2c1)c1cn(Cc2cn3cc(C4CC4)ccc3n2)nn1` [Example I-84, N-(benzo[b]thiophen-5-ylmethyl)-1-((6-cyclopropylimidazo[1,2-a]pyridin-2-yl)methyl)-1H-1,2,3-triazole-4-carboxamide]: the EC50 lay in the range of 100 to 2000 nM.

In the case of `COc1ccc(F)c(CNC(=O)c2cn(Cc3cn4cc(C5CC5)cc(COCCN(C)C)c4n3)nn2)c1F` [Example I-8, 1-((6-cyclopropyl-8-((2-(dimethylamino)ethoxy)methyl)imidazo[1,2-a]pyridin-2-yl)methyl)-N-(2,6-difluoro-3-methoxybenzyl)-1H-1,2,3-triazole-4-carboxamide], the EC50 was in the range of 1 to 10 nM.

Take `COc1ccc(-c2cn3ccccc3n2)c(CNC(=O)c2cn(Cc3cn4cc(C5CC5)ccc4n3)nn2)c1F` [Example I-70, 1-((6-cyclopropylimidazo[1,2-a]pyridin-2-yl)methyl)-N-(2-fluoro-6-(imidazo[1,2-a]pyridin-2-yl)-3-methoxybenzyl)-1H-1,2,3-triazole-4-carboxamide]: the concentration for a half-maximal effect (EC50) lay in the range of 10 to 100 nM.

Regarding `O=C(NCCOc1cccc(Cl)c1)c1cnn(Cc2cn3cc(C4CC4)ccc3n2)c1` [Example I-129, N-(2-(3-chlorophenoxy)ethyl)-1-((6-cyclopropylimidazo[1,2-a]pyridin-2-yl)methyl)-1H-pyrazole-4-carboxamide], the EC50 is 100 to 2000 nM.

Consider `CCOC(=O)CCc1cc(C2CC2)cn2cc(Cn3cc(C(=O)NCc4c(-n5cnnn5)ccc(Cl)c4F)nn3)nc12` [Example I-113, ethyl 3-(2-((4-((3-chloro-2-fluoro-6-(1H-tetrazol-1-yl)benzyl)carbamoyl)-1H-1,2,3-triazol-1-yl)methyl)-6-cyclopropylimidazo[1,2-a]pyridin-8-yl)propanoate], for which the EC50 was not above 1 nM.

For the compound `O=C(NCc1nccc(OC(F)F)c1F)c1cn(Cc2cn3cc(C4CC4)cc(N4CCN(CC(F)(F)F)CC4)c3n2)nn1` [Example I-152, 1-((6-cyclopropyl-8-(4-(2,2,2-trifluoroethyl)piperazin-1-yl)imidazo[1,2-a]pyridin-2-yl)methyl)-N-((4-(difluoromethoxy)-3-fluoropyridin-2-yl)methyl)-1H-1,2,3-triazole-4-carboxamide], the EC50 was 100 to 2000 nM.

With `N#Cc1ccc(CNS(=O)(=O)c2cnn(Cc3cn4cc(C5CC5)ccc4n3)c2)cc1` [Example I-34, N-(4-cyanobenzyl)-1-((6-cyclopropylimidazo[1,2-a]pyridin-2-yl)methyl)-1H-pyrazole-4-sulfonamide], the EC50 was more than 7100 nM.

As to `O=C(NCc1cc(Cl)ccc1-c1nn[nH]n1)c1cnn(Cc2cn3cc(C4CC4)ccc3n2)c1` [Example I-117, N-(5-chloro-2-(2H-tetrazol-5-yl)benzyl)-1-((6-cyclopropylimidazo[1,2-a]pyridin-2-yl)methyl)-1H-pyrazole-4-carboxamide], the EC50 is more than 7100 nM.

Consider `COc1ccc(-n2cnnn2)c(CNC(=O)c2cn(Cc3cn4cc(C5CC5)cc(CCC(=O)O)c4n3)nn2)c1F` [Example I-92, 3-(6-cyclopropyl-2-((4-((2-fluoro-3-methoxy-6-(1H-tetrazol-1-yl)benzyl)carbamoyl)-1H-1,2,3-triazol-1-yl)methyl)imidazo[1,2-a]pyridin-8-yl)propanoic acid], for which the EC50 is not above 1 nM.

As for `COc1ccc(-c2ccc(C(=O)O)cc2)c(CNC(=O)c2cn(Cc3cn4cc(C5CC5)ccc4n3)nn2)c1F` [Example I-88, 2′-((1-((6-cyclopropylimidazo[1,2-a]pyridin-2-yl)methyl)-1H-1,2,3-triazole-4-carboxamido)methyl)-3′-fluoro-4′-methoxy-[1,1′-biphenyl]-4-carboxylic acid], the EC50 was 1 to 10 nM.

For `O=C(NCc1cc(Cl)ccn1)c1cn(Cc2cn3cc(C4CC4)ccc3n2)nn1` [Example I-142, N-((4-chloropyridin-2-yl)methyl)-1-((6-cyclopropylimidazo[1,2-a]pyridin-2-yl)methyl)-1H-1,2,3-triazole-4-carboxamide], the EC50 was in the range of 2000 to 7100 nM.

For `O=C(NCc1cc2c(Cl)nccc2s1)c1cn(Cc2cn3cc(C4CC4)ccc3n2)nn1` [Example I-11, N-((4-chlorothieno[3,2-c]pyridin-2-yl)methyl)-1-((6-cyclopropylimidazo[1,2-a]pyridin-2-yl)methyl)-1H-1,2,3-triazole-4-carboxamide], the EC50 is more than 7100 nM.

Regarding `O=C(NCc1cc2c(cn1)NCCO2)c1cn(Cc2cn3cc(C4CC4)ccc3n2)nn1` [Example I-149, 1-((6-cyclopropylimidazo[1,2-a]pyridin-2-yl)methyl)-N-((3,4-dihydro-2H-pyrido[4,3-b][1,4]oxazin-7-yl)methyl)-1H-1,2,3-triazole-4-carboxamide], the EC50 was in the range of 10 to 100 nM.

Consider `O=C(NCc1nccc2ccc(Cl)cc12)c1cnn(Cc2cn3cc(C4CC4)ccc3n2)c1` [Example I-131, N-((7-chloroisoquinolin-1-yl)methyl)-1-((6-cyclopropylimidazo[1,2-a]pyridin-2-yl)methyl)-1H-pyrazole-4-carboxamide], for which the EC50 fell in the range of 100 to 2000 nM.

For `Nc1nnc(CNC(=O)c2cn(Cc3cn4cc(C5CC5)ccc4n3)nn2)o1` [Example I-19, N-((5-amino-1,3,4-oxadiazol-2-yl)methyl)-1-((6-cyclopropylimidazo[1,2-a]pyridin-2-yl)methyl)-1H-1,2,3-triazole-4-carboxamide], the EC50 was in the range of 2000 to 7100 nM.
